Reference: publication PMC6072100, “Exploring the links between peptoid antibacterial activity and toxicity” (MedChemComm, 2017)
Like-named read-outs stand apart in the source and are kept apart here. Square brackets hold non-standard residues; d marks the D form. Peptide text beside a SMILES is read from it. Gly(N-(CH2)6NH2) = NCCCCCCNCC(=O)O; Gly(N-2-aminoethyl) = NCCNCC(=O)O; Nspe = C[C@H](NCC(=O)O)c1ccccc1; NhArg = N=C(N)NCCCCNCC(=O)O; NPentylGly = CCCCCNCC(=O)O; Nphe = O=C(O)CNCc1ccccc1; Nlys = NCCCCNCC(=O)O

Tests used:
Assay type in all cases: cell-based, human
[1] = Skin cell toxicity assay with HaCaT (alamarBlue); settings: human, HaCaT cells (keratinocytes), ED50 HaCaT
Outline: (§1)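 HaCaT cells seeded at 2x10^4 per well 24 hours before 1-hour exposure to a 2–100 µM triplicate dilution series in DMEM high glucose with 10% FBS at 37 °C, 5% CO2. Viability assessed with alamarBlue; ED50 defined as dose killing 50% of cells, derived from dose-response data.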

[2] = test system: HaCaT cells; test: Skin cell toxicity assay with HaCaT (alamarBlue)
Outline: as §1

[3] = Cytotoxicity assay with HepG2 (alamarBlue); settings: human, HepG2 cells, ED50 HepG2
Method: The activity of our peptoid library was assessed against both bacterial and mammalian cells to gain a broader understanding of the factors that lead to effective and selective antimicrobial peptoids. We screened for broad-spectrum antibacterial activity against Gram-negative (Escherichia coli and Pseudomonas aeruginosa) and Gram-positive (Staphylococcus aureus and S. epidermidis) bacteria. The toxicity of the library was also assessed against two mammalian cell lines; HaCaT spontaneously transformed aneuploid keratinocytes were employed to model toxicity against human skin cells and HepG2, a cell line derived from a human liver carcinoma, were used as a study on polarised human hepatocytes. Detailed methods for these assays can be found in the ESI. ^‡ […]
Please note – ED50, the median effective dose, was defined as the dose that kills 50% of cells.
Cytotoxicity analyses were performed in 96-well plates (Costar, Fisher Scientific) using alamarBlue® (Invitrogen) for cell viability detection using a modified protocol as described previously. HepG2 or HaCaT cells were subcultured at 37 °C, 5% CO2 in DMEM high glucose supplemented with heat-inactivated foetal bovine sera (FBS, 10%; Biosera Ltd) and penicillin/streptomycin (P/S, 1%). Cells were counted using a Neubauer Improved Haemocytometer. HepG2 cells were seeded 1 day prior to treatment in 96 well plates at a concentration of 2 × 10^5 cells per mL in 100 μL of medium (2 × 10^4 cells per well). Then cells were pre-incubated with the compounds in triplicate in a dilution series in triplicate from 2–100 μM (5 mM stock solutions in DMSO diluted from 100 μM to 3 μM; untreated cells with DMSO as a negative control) in 50 μl of the media for 1 hour. Afterwards, 40 μL were removed from each well before the addition of 90 μL of the media, followed by incubation for 24 hours at 37 °C, 5% CO2. Then, 10 μL of alamarBlue® (Invitrogen) was added to each well before a 2 hour incubation prior to assessing cell viability using a fluorescent plate reader (Biotek; Ex 560 nm/Em 600 nm). All data were measured in triplicate on a minimum of two occasions to ensure a robust data set was collected. The ED50 values were calculated from the dose response results achieved from the serial dilutions.
Cytotoxicity assay with HepG2
Cytotoxicity analyses were performed in 96-well plates (Costar, Fisher Scientific) using alamarBlue® (Invitrogen) for cell viability detection using a modified protocol as previously described. The HepG2 cells were grown at 37 °C, 5% CO2 in DMEM high glucose supplemented with heat-inactivated foetal bovine sera (FBS, 10%; Biosera Ltd) and penicillin/streptomycin (P/S, 1%). Cells were counted using a Neubauer Improved Haemocytometer. HepG2 cells were seeded 1 day prior to treatment in 96 well plates at a concentration of 2x10^5 cells/mL in 100 µL of medium (2x10^4 cells/well). Then cells were pre-incubated with the compounds in triplicate (5 mM stock solutions in DMSO diluted from 100 µM to 3 µM; untreated cells with DMSO as a negative control) in 50 µl of the media for 1 hour.
Afterwards, 40 µL were removed from each well before the addition of 90 µL of the media, followed by incubation for 24 hours at 37 °C, 5% CO2. Then, 10 µL of alamarBlue® (Invitrogen) was added to each well before a 2 hour incubation prior to assessing cell viability using a fluorescent plate reader (Biotek; Ex 560 nm / Em 600 nm). All data was measured in triplicate on a minimum of two occasions to ensure a robust data set was collected. The ED50 values were calculated from the dose response results achieved from the serial dilutions. […]
5% CO2 in DMEM high glucose supplemented with heat-inactivated foetal bovine sera (FBS, 10%; Biosera Ltd) and penicillin/streptomycin (P/S, 1%). Cells were counted using a Neubauer […]
Empty wells were filled with 100 µL PBS. After 24 hours, cells were incubated with the compounds in a dilution series in triplicate from 2 – 100 µM (5 mM stock solutions in DMSO […]

[4] = human, HaCaT cells (keratinocytes), 24 h

Compound | CC50 at 24 h [1] | ED50 HaCaT [2, 4] | CC50 at 24 h [3] | toxicity to HaCaT or HepG2 (in words) [2] | ED50 HaCaT [2]
NCCCCCCNCC(=O)N(CC(=O)N(CC(=O)N(CCCCCCN)CC(=O)N(CC(=O)N(CC(=O)N(CCCCCCN)CC(=O)N(CC(=O)N(CC(=O)N(CCCCCCN)CC(=O)N(CC(=O)N(CC(N)=O)Cc1ccccc1)Cc1ccccc1)Cc1ccccc1)Cc1ccccc1)Cc1ccccc1)Cc1ccccc1)Cc1ccccc1)Cc1ccccc1 [Peptoid 1, (NahNpheNphe)4] (H-[Gly(N-(CH2)6NH2)][Nphe][Nphe][Gly(N-(CH2)6NH2)][Nphe][Nphe][Gly(N-(CH2)6NH2)][Nphe][Nphe][Gly(N-(CH2)6NH2)][Nphe][Nphe]-NH2) | 100 µM | >100 µM | 100 µM |  | 
NCCCCCCNCC(=O)N(CC(=O)N(CC(=O)N(CCCCCCN)CC(=O)N(CC(=O)N(CC(=O)N(CCCCCCN)CC(=O)N(CC(=O)N(CC(N)=O)Cc1ccccc1)Cc1ccccc1)Cc1ccccc1)Cc1ccccc1)Cc1ccccc1)Cc1ccccc1 [Peptoid 2, (NahNpheNphe)3] (H-[Gly(N-(CH2)6NH2)][Nphe][Nphe][Gly(N-(CH2)6NH2)][Nphe][Nphe][Gly(N-(CH2)6NH2)][Nphe][Nphe]-NH2) | 100 µM | >100 µM | 100 µM |  | 
NCCCCCCNCC(=O)N(CC(=O)N(CC(=O)N(CCCCCCN)CC(=O)N(CC(=O)N(CC(N)=O)Cc1ccccc1)Cc1ccccc1)Cc1ccccc1)Cc1ccccc1 [Peptoid 3, (NahNpheNphe)2] (H-[Gly(N-(CH2)6NH2)][Nphe][Nphe][Gly(N-(CH2)6NH2)][Nphe][Nphe]-NH2) | 100 µM | >100 µM | 100 µM |  | 
NCCCCNCC(=O)N(CC(=O)N(CC(=O)N(CCCCN)CC(=O)N(CC(=O)N(CC(=O)N(CCCCN)CC(=O)N(CC(=O)N(CC(=O)N(CCCCN)CC(=O)N(CC(=O)N(CC(N)=O)Cc1ccccc1)Cc1ccccc1)Cc1ccccc1)Cc1ccccc1)Cc1ccccc1)Cc1ccccc1)Cc1ccccc1)Cc1ccccc1 [Peptoid 4, (NLysNpheNphe)4] (H-[Nlys][Nphe][Nphe][Nlys][Nphe][Nphe][Nlys][Nphe][Nphe][Nlys][Nphe][Nphe]-NH2) | 36 µM |  | 100 µM | negligible toxicity | 
NCCCCNCC(=O)N(CC(=O)N(CC(=O)N(CCCCN)CC(=O)N(CC(=O)N(CC(=O)N(CCCCN)CC(=O)N(CC(=O)N(CC(N)=O)Cc1ccccc1)Cc1ccccc1)Cc1ccccc1)Cc1ccccc1)Cc1ccccc1)Cc1ccccc1 [Peptoid 5, (NLysNpheNphe)3] | 100 µM | >100 µM | 100 µM |  | 
NCCCCNCC(=O)N(CC(=O)N(CC(=O)N(CCCCN)CC(=O)N(CC(=O)N(CC(N)=O)Cc1ccccc1)Cc1ccccc1)Cc1ccccc1)Cc1ccccc1 [Peptoid 6, (NLysNpheNphe)2] (H-[Nlys][Nphe][Nphe][Nlys][Nphe][Nphe]-NH2) | 100 µM | >100 µM | 100 µM |  | 
NCCNCC(=O)N(CC(=O)N(CC(=O)N(CCN)CC(=O)N(CC(=O)N(CC(=O)N(CCN)CC(=O)N(CC(=O)N(CC(=O)N(CCN)CC(=O)N(CC(=O)N(CC(N)=O)Cc1ccccc1)Cc1ccccc1)Cc1ccccc1)Cc1ccccc1)Cc1ccccc1)Cc1ccccc1)Cc1ccccc1)Cc1ccccc1 [Peptoid 7, (NaeNpheNphe)4] (H-[Gly(N-2-aminoethyl)][Nphe][Nphe][Gly(N-2-aminoethyl)][Nphe][Nphe][Gly(N-2-aminoethyl)][Nphe][Nphe][Gly(N-2-aminoethyl)][Nphe][Nphe]-NH2) | 100 µM | >100 µM | 100 µM | negligible toxicity | 
NCCNCC(=O)N(CC(=O)N(CC(=O)N(CCN)CC(=O)N(CC(=O)N(CC(=O)N(CCN)CC(=O)N(CC(=O)N(CC(N)=O)Cc1ccccc1)Cc1ccccc1)Cc1ccccc1)Cc1ccccc1)Cc1ccccc1)Cc1ccccc1 [Peptoid 8, (NaeNpheNphe)3] (H-[Gly(N-2-aminoethyl)][Nphe][Nphe][Gly(N-2-aminoethyl)][Nphe][Nphe][Gly(N-2-aminoethyl)][Nphe][Nphe]-NH2) | 100 µM | >100 µM | 100 µM |  | 
NCCNCC(=O)N(CC(=O)N(CC(=O)N(CCN)CC(=O)N(CC(=O)N(CC(N)=O)Cc1ccccc1)Cc1ccccc1)Cc1ccccc1)Cc1ccccc1 [Peptoid 9, (NaeNpheNphe)2] (H-[Gly(N-2-aminoethyl)][Nphe][Nphe][Gly(N-2-aminoethyl)][Nphe][Nphe]-NH2) | 100 µM | >100 µM | 100 µM |  | 
C[C@@H](c1ccccc1)N(CC(N)=O)C(=O)CN(C(=O)CN(CCCCCCN)C(=O)CN(C(=O)CN(C(=O)CN(CCCCCCN)C(=O)CN(C(=O)CN(C(=O)CNCCCCCCN)[C@@H](C)c1ccccc1)[C@@H](C)c1ccccc1)[C@@H](C)c1ccccc1)[C@@H](C)c1ccccc1)[C@@H](C)c1ccccc1 [Peptoid 11, (NahNspeNspe)3] (H-[Gly(N-(CH2)6NH2)][Nspe][Nspe][Gly(N-(CH2)6NH2)][Nspe][Nspe][Gly(N-(CH2)6NH2)][Nspe][Nspe]-NH2) | 100 µM | >100 µM | 100 µM |  | 
C[C@@H](c1ccccc1)N(CC(N)=O)C(=O)CN(C(=O)CN(CCCCCCN)C(=O)CN(C(=O)CN(C(=O)CNCCCCCCN)[C@@H](C)c1ccccc1)[C@@H](C)c1ccccc1)[C@@H](C)c1ccccc1 [Peptoid 12, (NahNspeNspe)2] | 100 µM | >100 µM | 100 µM |  | 
CCCCCNCC(=O)N(CC(=O)N(CC(=O)N(CCCCN)CC(=O)N(CC(=O)N(CC(=O)N(CCCCN)CC(=O)N(CC(=O)N(CC(=O)N(CCCCN)CC(=O)N(CC(=O)N(CC(N)=O)[C@@H](C)c1ccccc1)[C@@H](C)c1ccccc1)[C@@H](C)c1ccccc1)[C@@H](C)c1ccccc1)[C@@H](C)c1ccccc1)[C@@H](C)c1ccccc1)[C@@H](C)c1ccccc1)[C@@H](C)c1ccccc1 [Peptoid 30, (NamyNspeNspe)[(NLysNspeNspe)]3] | 12 µM |  | 15 µM |  | 
CCCCCN(CC(=O)N(CC(=O)N(CC(=O)N(CCCCN)CC(=O)N(CC(=O)N(CC(N)=O)[C@@H](C)c1ccccc1)[C@@H](C)c1ccccc1)[C@@H](C)c1ccccc1)[C@@H](C)c1ccccc1)C(=O)CN(C(=O)CN(C(=O)CN(CCCCN)C(=O)CN(C(=O)CN(C(=O)CNCCCCN)[C@@H](C)c1ccccc1)[C@@H](C)c1ccccc1)[C@@H](C)c1ccccc1)[C@@H](C)c1ccccc1 [Peptoid 32, (NLysNspeNspe)2(NamyNspeNspe)(NLysNspeNspe)] | 20 µM |  | 22 µM |  | 
CCCCCNCC(=O)N(CC(=O)N(CC(=O)N(CCCCNC(=N)N)CC(=O)N(CC(=O)N(CC(=O)N(CCCCC)CC(=O)N(CC(=O)N(CC(=O)N(CCCCNC(=N)N)CC(=O)N(CC(=O)N(CC(N)=O)[C@@H](C)c1ccccc1)[C@@H](C)c1ccccc1)[C@@H](C)c1ccccc1)[C@@H](C)c1ccccc1)[C@@H](C)c1ccccc1)[C@@H](C)c1ccccc1)[C@@H](C)c1ccccc1)[C@@H](C)c1ccccc1 [Peptoid 40, [(NamyNspeNspe)(NhArgNspeNspe)]2] (H-[NPentylGly][Nspe][Nspe][NhArg][Nspe][Nspe][NPentylGly][Nspe][Nspe][NhArg][Nspe][Nspe]-NH2) | 31 µM |  | 24 µM |  | 
(NhArgNmfbNmfb)4 [Peptoid 36] |  |  |  |  | 28 µM
